Data published in patent publication US9156860B2, “Boron-containing small molecules” (Anacor Pharmaceuticals, Inc., priority 2011, dated 2015).

What was measured:
[1] = test system: adult American dog tick (Dermacentor variabilis); assay: Example 4: efficacy against adult American dog tick infestations on dogs; assay type: in vivo; settings: for therapeutic efficacy: 24 hour post-treatment
Procedure: The therapeutic (knockdown) and residual efficacy of 7, administered orally at a point dosages of 5 and 25 mg/kg bodyweight, was evaluated against adult American dog tick (D. variabilis) and cat flea (C. felis) infestations on dogs. Sixteen (16) male and female beagle dogs were allocated to one of four treatment groups: Untreated control group (n=4 dogs); 7, 5 mg/kg liquid oral dosage form (n=4 dogs); 7, 25 mg/kg liquid oral dosage form (n=4 dogs); and 7, 25 mg/kg solid oral dosage form. Liquid dosage forms were prepared by dissolving 7 in a solution of 55% polyethylene glycol-300, 35% propylene glycol and 10% water at 25 mg/ml. Solid oral dosage form was prepared by thoroughly mixing 7 with microcrystalline cellulose and croscarmellose sodium (50:47:3, w/w) and placing into size 00 gelatin capsules. On Day 0, all dogs were orally administered 7 at the prescribed point dosages. Twenty-four (24) hours before treatment (Day −1), all dogs were infested with approximately 50 unfed, adult-stage American dog ticks (D. variabilis; approximately 50% male and 50% female). […] For all groups, dogs were re-infested with approximately 50 unfed, adult D. variabilis ticks on Days 5 and 12, with tick classification, counts and removal on Days 7 and 14 (approximately 48 hours after each infestation). For negative control and 7 (25 mg/kg solid oral dosage form) groups, dogs were re-infested with approximately 50 unfed, adult D. variabilis ticks on Days 19 and 28, with tick classification, counts and removal on Days 21 and 30. Immediately following removal of ticks on Day 30, dogs in the negative control and 7 (25 mg/kg solid oral dosage form) groups were infested with approximately 100 unfed, adult cat fleas (C. felis). Flea counts were conducted approximately 48 hours later, on Day 32.
The total number of live ticks or fleas (normal plus moribund classification) present on each dog was determined for each interval, and this number was transformed using the natural logarithm transformation plus one (Ln count+1); addition of one to each count served to adjust for counts that were zero. Geometric mean (GM) group tick or flea counts were obtained via back-transformation of group mean transformed counts and subtracting one. The negative control group was used for comparison to 7 groups for the calculation of percent efficacy (% reduction in live tick or flea counts). GM percent efficacy of treatments was calculated using the following formula: […]

[2] = test system: brown dog tick (Rhipicephalus sanguineus); assay: Example 5: efficacy against brown dog tick infestations on dogs; assay type: in vivo
Procedure: (§1) The therapeutic (knockdown) and residual efficacy of 7 and 8, each administered orally at a point dose of either 25 mg/kg or 50 mg/kg bodyweight, was evaluated against adult tick (Dermacentor variabilis and Rhipicephalus sanguineus) infestations on dogs. Twenty (20) male and female beagle dogs were allocated to one of five treatment groups, four (4) dogs per group: Untreated control; 7, 25 mg/kg; 7, 50 mg/kg; 8, 25 mg/kg; and 8, 50 mg/kg. On Day −1, all dogs were infested with approximately 50 unfed, adult D. variabilis ticks. On Day 0, dogs were orally administered gelatin capsules containing either 7 or 8 (50% technical active, 47% microcrystalline cellulose and 3% croscarmellose sodium, w/w) so as to achieve the desired point dosages. Ticks were counted and classified on all dogs, but not removed, on Day 1 (approximately 24 hours after treatment). On Day 2, approximately 48 hours after treatment, ticks were counted, classified and removed. Dogs were re-infested with the same number of D. variabilis ticks on Days 5, 12 and 19 with corresponding 48 hour post-infestation tick counts on Days 7, 14 and 21. Dogs were infested with approximately 50 unfed, adult brown dog ticks (Rhipicephalus sanguineus; approximately 50% male and 50% female) on Days 15 and 28, with corresponding 48 hour post-infestation tick counts on Days 17 and 30. GM percent efficacy of treatments against both tick species was calculated using the following formula: […]

[3] = Tolerability of oral treatment in dogs; assay type: in vivo, beagle dogs
Procedure: The therapeutic (knockdown) and residual efficacy of 7, administered orally at a point dosages of 5 and 25 mg/kg bodyweight, was evaluated against adult American dog tick (D. variabilis) and cat flea (C. felis) infestations on dogs. Sixteen (16) male and female beagle dogs were allocated to one of four treatment groups: Untreated control group (n=4 dogs); 7, 5 mg/kg liquid oral dosage form (n=4 dogs); 7, 25 mg/kg liquid oral dosage form (n=4 dogs); and 7, 25 mg/kg solid oral dosage form. Liquid dosage forms were prepared by dissolving 7 in a solution of 55% polyethylene glycol-300, 35% propylene glycol and 10% water at 25 mg/ml. Solid oral dosage form was prepared by thoroughly mixing 7 with microcrystalline cellulose and croscarmellose sodium (50:47:3, w/w) and placing into size 00 gelatin capsules. On Day 0, all dogs were orally administered 7 at the prescribed point dosages. Twenty-four (24) hours before treatment (Day −1), all dogs were infested with approximately 50 unfed, adult-stage American dog ticks (D. variabilis; approximately 50% male and 50% female). On Day 2, approximately 48 hours after treatment, ticks were removed and counts were conducted to determine the number and life-status classification of ticks present on all dogs (normal, moribund or dead; attached or detached). For all groups, dogs were re-infested with approximately 50 unfed, adult D. variabilis ticks on Days 5 and 12, with tick classification, counts and removal on Days 7 and 14 (approximately 48 hours after each infestation). For negative control and 7 (25 mg/kg solid oral dosage form) groups, dogs were re-infested with approximately 50 unfed, adult D. variabilis ticks on Days 19 and 28, with tick classification, counts and removal on Days 21 and 30. Immediately following removal of ticks on Day 30, dogs in the negative control and 7 (25 mg/kg solid oral dosage form) groups were infested with approximately 100 unfed, adult cat fleas (C. felis). Flea counts were conducted approximately 48 hours later, on Day 32.
as §1
The efficacy of 7, administered orally at a point dose of 25 mg/kg bodyweight, was evaluated against adult tick (Dermacentor variabilis) infestations. Twelve (12) male and female beagle dogs were allocated to three treatment groups: Untreated, negative control A; 7 group B; and 7 group C (n=4 dogs per group). Dogs were infested with approximately 50 unfed, adult D. variabilis ticks on Days −1, 5, 12, 19 and 28. […]

[4] = 5 mg/kg oral, liquid dosage form, Day 2
[5] = 5 mg/kg oral, liquid dosage form, Day 7
[6] = 5 mg/kg oral, liquid dosage form, Day 14

## CC1(C)OB(O)c2ccc(C3=NOC(c4cc(Cl)c(Cl)c(Cl)c4)(C(F)(F)F)C3)cc21 (racemic) [Compound 7, 3,3-Dimethyl-5-(5-(3,4,5-trichlorophenyl)-5-(trifluoromethyl)-4,5-dihydroisoxazol-3-yl)benzo[c][1,2]oxaborol-1(3H)-ol]
[1]; 5 mg/kg liquid oral dosage form, all intervals
  therapeutic and residual efficacy: < 70%
[1]; [4]
  % efficacy: (68.2) %
  Geometric mean group live tick count: 10.6
[1]; [5]
  % efficacy: (0.0) %
  Geometric mean group live tick count: 36.5
[1]; [6]
  % efficacy: (0.0) %
  Geometric mean group live tick count: 36.8
[1]; 25 mg/kg oral, liquid dosage form
  therapeutic efficacy: 100%
[1]; 25 mg/kg oral, liquid dosage form, Day 2
  Geometric mean group live tick count: 0.0
[1]; 25 mg/kg oral, liquid dosage form, Day 7
  Geometric mean group live tick count: 2.6
[1]; 25 mg/kg oral, liquid dosage form, Day 14
  Geometric mean group live tick count: 16.9
[1]; 25 mg/kg oral, solid dosage form
  therapeutic efficacy: 100%
[1]; 25 mg/kg oral, solid dosage form, Day 2
  Geometric mean group live tick count: 0.0
[1]; 25 mg/kg oral, solid dosage form, Day 7
  Geometric mean group live tick count: 0.7
[1]; 25 mg/kg oral, solid dosage form, Day 14
  Geometric mean group live tick count: 6.3
[1]; 25 mg/kg oral, solid dosage form, Day 21
  Geometric mean group live tick count: 6.8
[1]; 25 mg/kg oral, solid dosage form, Day 30
  Geometric mean group live tick count: 10.7
[2]; 25 mg/kg oral capsule, Day 17
  % efficacy: (75.0) %
  Geometric mean group live tick count: 8.0
[2]; 50 mg/kg oral capsule, Day 17
  Geometric mean group live tick count: 1.6
[2]; 50 mg/kg oral capsule, Day 30
  % efficacy: (63.9) %
  Geometric mean group live tick count: 13.4
[3]; oral 25 mg/kg, Example 7
  tolerability: well tolerated
[3]; oral 50 mg/kg, Example 6
  tolerability: well tolerated
[3]; oral 5 or 25 mg/kg, Example 4
  tolerability: well tolerated
[3]; oral 25 or 50 mg/kg, Example 5
  tolerability: well tolerated
